Here are results for one molecule from BindingDB's records for doi:10.1016/j.jmb.2007.01.004 (Astex Therapeutics, 2007).

Molecules are shown by their SMILES.

The target in this test is cAMP-dependent protein kinase catalytic subunit alpha (Bos taurus, UniProt P00517). Briefly: PKA In Vitro Enzyme Assay. The following applies: pH 7.2; 22 °C. How it is done:
The recombinant alpha catalytic subunit of bovine PKA was assayed with a peptide substrate and test compound in the presence of 40 uM ATP/ [gamma-33P]ATP in 96-well plates. […] IC50 values were determined from an eight-point concentration range run in duplicate and calculated in GraphPad Prism 4.00.

`Cc1n[nH]c2ccc(-c3cncc(OC[C@@H](N)Cc4c[nH]c5ccccc45)c3)cc12` [5-{5-[(2S)-2-amino-3-(1H-indol-3-yl)propoxy]pyridin-3-yl}-3-methyl-1H-indazole] registered an IC50 of 27 nM.
